Measured values reported in patent publication US7771713B2, “Chemical composition that attract arthropods” (priority 1999, dated 2010).

Columns and labels:
[1] = tested on: Anopheles albimanus; test: Olfactometer attraction test of compounds and compositions; format: in vivo; details: single treatment, 500 μL;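 also: olfactometer with a treatment port and a matching control port using identical delivery device and conditions, both opened together, three tests per battery, each run in its own cage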
[2] = tested on: Aedes aegypti; test: Olfactometer attraction test, treatment port vs control port, approximately 75 female mosquitoes; format: in vivo; details: for Response with L-LA (%): compound 500 μL together with L-lactic acid; for Δ [(Resp with LA) − Resp] (%): difference between response with L-lactic acid and response alone; for Response Avg %: 60 mL glass petri dish; for caught in CK (check or control port): compound alone 500 μL in treatment port
Method: The tests were conducted in an olfactometer (55 ft^3/min airflow, 80° F., 60% R.H.) as described by Posey, J. Med. Entomol., 35, 330-334 (1998); and LA is lactic acid. Mosquitoes were allowed to settle at least one hour prior to testing. The olfactometer was cleaned after each battery of tests. Each battery consisted of three tests, conducted at 08:30, 11:00 and 13:00 hours local time. Each of the three tests was conducted in a separate cage. The control consisted of identical sample delivery devices and conditions compared to that of the treatment side. Both the treatment and control ports were opened and closed simultaneously when inserting a new treatment/control.

[3] = compound alone, high dose of 500 μL
[4] = single compound, dose 500 (μL), Aedes aegypti attraction

SMILES | % caught [1] [%] | Response with L-LA (%) [2] [%] | Response (%) [2, 3] [%] | Δ [(Resp with LA) − Resp] (%) [2] [%] | also measured
CCCS [1-Propanethiol] | 24.0 | – | – | – | –
C=CCCCCCCCCCCCC [1-Tetradecene] | 1.4 | – | – | – | –
C=CC(=O)CC [1-penten-3-one] | 29.3 | 23 | 19 | 4 | –
CCCC(=O)C(C)=O [2,3-Hexanedione] | 2.7 | – | – | – | –
CC(=O)C(C)=O [2,3-butanedione] | 1.4 | 29 | 37 | −8 | –
CC(C)CC(=O)CC(C)C [2,6-Dimethyl-4-Heptanone] | 18.7 | – | – | – | –
Nc1ccccn1 [2-Aminopyridine] | 0.0 | – | – | – | –
CCCCCCCCCCC(C)=O [2-Dodecanone] | 1.4 | – | – | – | –
CCCCC(=O)C(C)C [2-Methyl-3-Heptanone] | 34.7 | – | – | – | –
CCCCCC(=O)C(C)C [2-Methyl-3-Octanone] | 30.1 | – | – | – | –
CC(C)S [2-Thiopropane] | 20.5 | – | – | – | –
CCCCCCCCCCCC(C)=O [2-Tridecanone] | 1.3 | – | – | – | –
CCCCCCCCCC(C)=O [2-Undecanone] | 4.2 | – | – | – | –
CCC(C)=O [2-butanone] | 47.9 | 81 | 28 | 53 | –
CCCCCCCCC(C)=O [2-decanone] | 4.0 | 24 | 14 | 10 | –
CCCCCC(C)=O [2-heptanone] | 10.4 | 42 | 17 | 25 | –
CCCCC(C)=O [2-hexanone] | 4.3 | 51 | 3 | 48 | Response Avg % [2, 4]: 3.0%
CCC(=O)C(C)C [2-methyl-3-pentanone] | 5.3 | 9 | 1 | 8 | Response Avg % [2, 4]: 1.0%
Cc1ccco1 [2-methylfuran] | 35.5 | 52 | 15 | 37 | caught in CK (check or control port) ([2]; mosquitoes in control port): 30%

SMILES | % caught [1] [%] | Response with L-LA (%) [2] [%] | Response (%) [2, 3] [%] | Δ [(Resp with LA) − Resp] (%) [2] [%] | also measured
CCCCCCCC(C)=O [2-nonanone] | 27.0 | 12 | 8 | 4 | –
CCCCCCC(C)=O [2-octanone] | 28.6 | 16 | 8 | 8 | –
CCCC(C)=O [2-pentanone] | 10.8 | 76 | 8 | 64 | –
CCCCCCCC(=O)CC [3-Decanone] | 9.3 | – | – | – | –
CCCCCC(=O)CC [3-Octanone] | 25.0 | – | – | – | –
C=CC(C)=O [3-buten-2-one] | 45.2 | 39 | 31 | 8 | caught in CK (check or control port), with L-LA ([2]; compound 500 μL with L-lactic acid in treatment port, mosquitoes in control port): 51%; caught in CK (check or control port) ([2]; mosquitoes in control port): 61%; Response Avg % ([2]; no Base, Activator1 dose 500): 31.0%
CCCCC(=O)CC [3-heptanone] | 11.3 | 36 | 12 | 24 | –
CCCC(=O)CC [3-hexanone] | 8.3 | 39 | 1 | 38 | Response Avg % [2, 4]: 1.0%
CC(=O)C(C)O (centres unmarked) [3-hydroxy-2-butanone] | 1.3 | 35 | 11 | 24 | Response (%) ([2]; base compound alone (mode of action similar to lactic acid)): 9%; Response with Ace (%) ([2]; base compound together with acetone): 57%; Δ [(Resp with Ace) − Resp] (%) ([2]; difference between response with acetone and response alone): 48%
CC(=O)C(C)C [3-methyl-2-butanone] | 24.4 | 82 | 8 | 74 | –
CCC(C)C(C)=O (centres unmarked) [3-methyl-2-pentanone] | 17.1 | 9 | 8 | 1 | –
CCCCCCC(=O)CC [3-nonanone] | 15.8 | 9 | 4 | 5 | Response Avg % [2, 4]: 4.0%
CCC(=O)CC [3-pentanone] | 53.9 | 28 | 12 | 16 | –
CCCCCCC(=O)CCC [4-Decanone] | 7.8 | – | – | – | –
CC=CC(=O)CC [4-Hexen-3-one] | 79.2 | – | – | – | –
CCCC(=O)CCC [4-heptanone] | 8.0 | 32 | 12 | 20 | –
CC(=O)CC(C)C [4-methyl-2-pentanone] | 1.3 | 64 | 0 | 64 | Response Avg % [2, 4]: 0.0%
CC(=O)CCC(C)C [5-Methyl-2-Hexanone] | 11.7 | – | – | – | –
CCCCC(=O)CCCC [5-nonanone] | 12.7 | 47 | 14 | 33 | –
